Measurements reported in ChEMBL document CHEMBL6078678, “Unveiling the Antimycobacterial Potential of Novel 4-Alkoxyquinolines: Insights into Selectivity, Mechanism of Action, and In Vivo Exposure” (J Med Chem, 2024).

Columns and labels:
Assay in all cases: microbe, parasite or virus in culture
[1] = test system: Mycobacterium tuberculosis
[2] = test system: Mycobacterium tuberculosis; remark: listed apart in the source
[3] = test system: Mycobacterium tuberculosis; remark: listed apart in the source

Structure (SMILES) | MIC [1] [µM] | MIC [2] [µM] | MIC [3] [µM]
Cc1cc(OCCCNc2ccc(Br)cc2)c2cc(Cl)ccc2n1 | < 0.06 | < 0.06 | < 0.06
COc1ccc2nc(C)cc(OCCCNc3ccc(Br)cc3)c2c1 | < 0.05 | < 0.05 | < 0.05
Cc1cc(OCCCNc2ccc(Cl)cc2)c2cc(Br)ccc2n1 | < 0.05 | < 0.05 | < 0.05
CCc1ccc(NCCCOc2cc(C)nc3ccc(Cl)cc23)cc1 | < 0.06 | < 0.06 | < 0.06
COc1ccc2nc(C)cc(OCCCNc3ccc(I)cc3)c2c1 | < 0.05 | < 0.05 | < 0.05
CCc1ccc(NCCCOc2cc(CC)nc3ccc(Br)cc23)cc1 | < 0.05 | < 0.05 | < 0.05
CCc1ccc(NCCCOc2cc(C)nc3ccc(Br)cc23)cc1 | < 0.05 | < 0.05 | < 0.05
